Data: PMC6911642 (Cancer research, 2019)

Tests used:
PERK = molecular target: T1, PERK (Rattus norvegicus, UniProt Q9Z1Z1); assay: Inhibition of PERK autophosphorylation; format: cell-based
T1 sequence (Q9Z1Z1 28-1108): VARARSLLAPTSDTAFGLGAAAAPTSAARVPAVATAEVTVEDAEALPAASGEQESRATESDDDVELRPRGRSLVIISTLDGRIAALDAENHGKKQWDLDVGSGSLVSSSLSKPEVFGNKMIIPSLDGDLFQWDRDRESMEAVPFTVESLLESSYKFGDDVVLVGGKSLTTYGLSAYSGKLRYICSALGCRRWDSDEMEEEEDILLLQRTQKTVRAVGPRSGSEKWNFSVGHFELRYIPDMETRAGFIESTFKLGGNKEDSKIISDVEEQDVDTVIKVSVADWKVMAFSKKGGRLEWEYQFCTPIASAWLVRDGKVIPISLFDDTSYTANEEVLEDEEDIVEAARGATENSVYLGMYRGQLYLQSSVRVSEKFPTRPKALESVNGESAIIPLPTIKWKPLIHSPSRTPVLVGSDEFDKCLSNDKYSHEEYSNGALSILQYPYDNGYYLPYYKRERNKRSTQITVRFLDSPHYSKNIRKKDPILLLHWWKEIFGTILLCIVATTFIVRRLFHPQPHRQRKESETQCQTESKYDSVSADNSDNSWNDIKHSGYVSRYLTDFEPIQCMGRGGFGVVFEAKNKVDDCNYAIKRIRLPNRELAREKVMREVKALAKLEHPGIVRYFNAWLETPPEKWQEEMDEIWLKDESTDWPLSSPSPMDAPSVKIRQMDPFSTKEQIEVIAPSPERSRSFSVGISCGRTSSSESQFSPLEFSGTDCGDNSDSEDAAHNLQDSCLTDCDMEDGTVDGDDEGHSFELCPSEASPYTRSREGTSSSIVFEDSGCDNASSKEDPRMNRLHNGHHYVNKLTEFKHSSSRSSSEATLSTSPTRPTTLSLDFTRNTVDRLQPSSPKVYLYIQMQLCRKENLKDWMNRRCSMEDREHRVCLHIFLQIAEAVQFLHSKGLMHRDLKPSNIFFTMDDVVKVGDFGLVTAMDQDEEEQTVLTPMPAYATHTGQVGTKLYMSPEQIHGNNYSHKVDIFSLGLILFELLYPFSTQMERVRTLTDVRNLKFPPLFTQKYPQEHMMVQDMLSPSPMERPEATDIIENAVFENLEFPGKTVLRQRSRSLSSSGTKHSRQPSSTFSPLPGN

IRE1α = IRE1α (Rattus norvegicus, UniProt A0A4Y1YQ52); assay: Inhibition of IRE1α RNase output; format: cell-based
Sequence of IRE1α (A0A4Y1YQ52 21-977): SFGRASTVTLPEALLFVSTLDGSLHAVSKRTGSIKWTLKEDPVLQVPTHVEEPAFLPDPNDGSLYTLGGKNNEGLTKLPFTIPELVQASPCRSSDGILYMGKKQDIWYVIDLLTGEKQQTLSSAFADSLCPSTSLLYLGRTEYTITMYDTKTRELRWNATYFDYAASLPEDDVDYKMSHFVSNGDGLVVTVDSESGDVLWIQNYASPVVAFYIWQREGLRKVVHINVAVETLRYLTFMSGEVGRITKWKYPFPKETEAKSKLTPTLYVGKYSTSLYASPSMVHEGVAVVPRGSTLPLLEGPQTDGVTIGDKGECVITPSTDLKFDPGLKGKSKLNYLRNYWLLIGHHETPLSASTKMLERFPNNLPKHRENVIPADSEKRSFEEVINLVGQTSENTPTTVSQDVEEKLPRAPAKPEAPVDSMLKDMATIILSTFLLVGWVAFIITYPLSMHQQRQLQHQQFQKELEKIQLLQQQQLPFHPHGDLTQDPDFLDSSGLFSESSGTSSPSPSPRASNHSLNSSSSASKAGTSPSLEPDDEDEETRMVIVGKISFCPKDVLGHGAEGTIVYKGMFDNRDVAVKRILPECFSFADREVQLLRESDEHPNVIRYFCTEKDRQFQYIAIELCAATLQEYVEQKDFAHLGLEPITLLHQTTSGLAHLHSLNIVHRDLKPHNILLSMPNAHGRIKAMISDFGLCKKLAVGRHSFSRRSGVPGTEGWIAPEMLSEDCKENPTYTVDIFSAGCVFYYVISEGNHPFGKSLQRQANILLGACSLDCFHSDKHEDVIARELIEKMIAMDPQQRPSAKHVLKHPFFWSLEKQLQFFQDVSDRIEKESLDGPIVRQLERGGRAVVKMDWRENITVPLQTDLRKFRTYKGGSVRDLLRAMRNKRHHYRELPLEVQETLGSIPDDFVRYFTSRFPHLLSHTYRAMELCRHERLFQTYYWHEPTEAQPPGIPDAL

Row | IC50 (PERK) [µM] | IC50 (IRE1α) [µM] | Compound
1 | ~0.125 | – | Cc1cccc(CC(=O)N2CCc3c2ccc(-c2cn(C)c4ncnc(N)c24)c3F)n1 [GSK2656157]
2 | – | ~0.125 | Cc1ccc2c(NS(=O)(=O)c3ccccc3Cl)cccc2c1Oc1ncccc1-c1ccnc(N[C@H]2CCCNC2)n1 [KIRA8]
